Reference: publication PMC8613358, “Next generation Glucose-1-phosphate thymidylyltransferase (RmlA) inhibitors: An extended SAR study to direct future design” (Bioorganic & Medicinal Chemistry, 2021)
Converted amounts (≈) assume the structure as drawn. “Also recorded” adds a separate entry of the source. Counter-ions that a name gives are not always drawn.

How the values were obtained:
[1] = molecular target: T1, P. aeruginosa RmlA (Pseudomonas aeruginosa, UniProt Q9HU22); assay: In vitro RmlA inhibition assay (BIOMOL Green phosphate detection); format: biochemical; conditions: for inhibition at 10 µM: 10 μM inhibitor, 30 min, room temperature; for inhibition at 10 µM / IC50: 15 nM recombinant RmlA, 5 μM dTTP, 5 μM G-1-P; for LE (Ligand efficiency): LE = pIC50/number of heavy atoms; for LLE (Lipophilic ligand efficiency): LLE = pIC50 – cLogP; for IC50: ± SD, n = 3; for increase in potency compared to 1b: ratio of IC50 values vs 1b
T1 construct: made in house
Description: Each assay was performed in a 101 μL reaction volume containing 50 mM Tris (pH 7.4), 5 mM MgCl2, 1 mM dithiothreitol, 0.1 mM EDTA (pH 8.0), 0.1 mM EGTA (pH 8.0), 0.05% NP-40, 15 nM recombinant RmlA, 0.8 μg/ml pyrophosphatase, 5 μM dTTP and 5 μM G-1-P. The inhibitor was added to the plate (20 μL) followed by RmlA (30 μL). The reaction was initiated with the addition of dTTP (25 μL), G-1-P (25 μL) and pyrophosphatase (1 μL) as a mixture in one charge (51 μL total) and the assay was allowed to run for 30 min at room temperature. The reaction was quenched by addition of BIOMOL™ Green reagent (100 μL) and was allowed to develop before the absorbance of each well was measured at 620 nm.

[2] = system: M.tuberculosis (H37Rv); parameters: method as in PMID 23138692; conditions: cited from earlier work

T1 sequence (Q9HU22 1-293): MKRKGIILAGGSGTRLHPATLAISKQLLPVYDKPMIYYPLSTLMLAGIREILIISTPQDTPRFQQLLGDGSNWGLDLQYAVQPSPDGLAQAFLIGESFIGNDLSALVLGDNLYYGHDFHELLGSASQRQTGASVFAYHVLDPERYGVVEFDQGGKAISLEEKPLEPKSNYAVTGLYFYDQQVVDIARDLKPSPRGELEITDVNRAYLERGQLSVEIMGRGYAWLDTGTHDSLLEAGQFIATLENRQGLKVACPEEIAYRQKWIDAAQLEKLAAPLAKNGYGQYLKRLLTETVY

`CNCCCNc1c(N(C)S(=O)(=O)c2ccccc2)c(=O)[nH]c(=O)n1Cc1ccc(Br)cc1` (as salt: TFA) [Compound 1b, N-(1-(4-bromobenzyl)-6-((3-(methylamino)propyl)amino)-2,4-dioxo-1,2,3,4-tetrahydropyrimidin-5-yl)-N-methylbenzenesulfonamide] gave a melting point of 294 to 297 °C.

`CNCCNc1c(N(C)S(=O)(=O)c2ccccc2)c(=O)[nH]c(=O)n1Cc1ccc(Br)cc1` (as salt: TFA) [Compound 1c, N-(1-(4-bromobenzyl)-6-((2-(methylamino)ethyl)amino)-2,4-dioxo-1,2,3,4-tetrahydropyrimidin-5-yl)-N-methylbenzenesulfonamide] gave a melting point of 283 to 286 °C.

In the case of `CN(c1c(N)n(Cc2ccc(Br)cc2)c(=O)[nH]c1=O)S(=O)(=O)c1ccccc1` [Compound 1a], the inhibition at 10 µM [1] is reported as 100%, the “LE (Ligand efficiency)” value [1] is reported as 0.37 and the “LLE (Lipophilic ligand efficiency)” value [1] is reported as 5.20. It also gave an IC50 [1] of 34 ± 2 nM.

With `CNCCCNc1c(N(C)S(=O)(=O)c2ccccc2)c(=O)[nH]c(=O)n1Cc1ccc(Br)cc1` [Compound 1b, N-(1-(4-bromobenzyl)-6-((3-(methylamino)propyl)amino)-2,4-dioxo-1,2,3,4-tetrahydropyrimidin-5-yl)-N-methylbenzenesulfonamide] the inhibition at 10 µM [1] was 100%, the “LE (Ligand efficiency)” value [1] was 0.30 and the “LLE (Lipophilic ligand efficiency)” value [1] was 4.30. The IC50 [1] was 860 ± 96 nM.

For `CNCCNc1c(N(C)S(=O)(=O)c2ccccc2)c(=O)[nH]c(=O)n1Cc1ccc(Br)cc1` [Compound 1c, N-(1-(4-bromobenzyl)-6-((2-(methylamino)ethyl)amino)-2,4-dioxo-1,2,3,4-tetrahydropyrimidin-5-yl)-N-methylbenzenesulfonamide], the “activity against P. aeruginosa RmlA (in words)” value [1] was “complete loss of activity; also recorded: lost the inhibitory activity” and the inhibition at 10 µM [1] was 0%.

In the case of `CN(c1c(NCCCCN)n(Cc2ccc(Br)cc2)c(=O)[nH]c1=O)S(=O)(=O)c1ccccc1` [Compound 1d, N-(6-((4-aminobutyl)amino)-1-(4-bromobenzyl)-2,4-dioxo-1,2,3,4-tetrahydropyrimidin-5-yl)-N-methylbenzenesulfonamide], the inhibition at 10 µM [1] is reported as 100%, the “LE (Ligand efficiency)” value [1] is reported as 0.28 and the “LLE (Lipophilic ligand efficiency)” value [1] is reported as 4.40. For the same compound, the “increase in potency compared to 1b” value [1] was about 2.5 fold, the IC50 [1] was 303 ± 26 nM and the melting point was 311 to 313 °C.

With `CN(c1c(NCCCCCN)n(Cc2ccc(Br)cc2)c(=O)[nH]c1=O)S(=O)(=O)c1ccccc1` [Compound 1e, N-(6-((5-aminopentyl)amino)-1-(4-bromobenzyl)-2,4-dioxo-1,2,3,4-tetrahydropyrimidin-5-yl)-N-methylbenzenesulfonamide] the inhibition at 10 µM [1] was 100%, the “LE (Ligand efficiency)” value [1] was 0.27 and the “LLE (Lipophilic ligand efficiency)” value [1] was 3.90. The “increase in potency compared to 1b” value [1] was about 2.5 fold, the IC50 [1] was 316 ± 23 nM and the melting point was 317 to 319 °C.

With `CN(c1c(NCCCn2cc(CN)nn2)n(Cc2ccccc2)c(=O)[nH]c1=O)S(=O)(=O)c1ccccc1` [Compound 1f] the inhibition at 10 µM [1] was 100%, the “LE (Ligand efficiency)” value [1] was 0.21 and the “LLE (Lipophilic ligand efficiency)” value [1] was 4.50. The IC50 [1] was 2470 ± 20 nM and the melting point was 295 to 297 °C.

In the case of `CN(c1c(N)n(Cc2ccccc2)c(=O)[nH]c1=O)S(=O)(=O)c1ccccc1` [Compound 8a], the “MIC100 (M. tuberculosis)” value [2] is given as 100 µg/mL (≈ 259 µM).
